Laboratory results as given in article PMC7301889 (Journal of computer-aided molecular design, 2019).

Assay: Potentiometric
Type: physicochemical
Details: 1-octanol/water biphasic system, log P (mean ± SEM), octanol / ISA water, neutral species, 25.0 ± 0.5 °C, 150 mM KCl, mean ± SEM of at least three independent replicates

First: FC(F)(F)c1cccc(Nc2ncnc3ccccc23)c1 [SM02, c1ccc2c(c1)c(ncn2)Nc3cccc(c3)C(F)(F)F]
Second: Clc1cccc(Nc2ncnc3ccccc23)c1 [SM12, c1ccc2c(c1)c(ncn2)Nc3cccc(c3)Cl.Cl]
The logP of the first is higher: 4.09 ± 0.03 for the first, 3.83 ± 0.03 for the second.

Compared with `Clc1ccc(CNc2ncnc3ccccc23)cc1` [SM04, c1ccc2c(c1)c(ncn2)NCc3ccc(cc3)Cl], `COc1cccc(Nc2ncnc3ccccc23)c1` [SM09, COc1cccc(c1)Nc2c3ccccc3ncn2.Cl] is lower in logP: 3.98 ± 0.03 for the first, 3.03 ± 0.07 for the second.

Compared with `Cc1ccc2[nH]c(=O)c(CC(=O)O)c(-c3ccccc3)c2c1` [SM08, Cc1ccc2c(c1)c(c(c(=O)[nH]2)CC(=O)O)c3ccccc3], `Nc1ccc2c(c1)ncn2-c1ccccc1` [SM14, c1ccc(cc1)n2cnc3c2ccc(c3)N] is lower in logP: 3.1 ± 0.03 for the first, 1.95 ± 0.03 for the second.

Compared with `Nc1ncnc2c1cnn2-c1ccccc1` [SM11, c1ccc(cc1)n2c3c(cn2)c(ncn3)N], `Oc1ccc(-n2cnc3ccccc32)cc1` [SM15, c1ccc2c(c1)ncn2c3ccc(cc3)O] is higher in logP: 2.1 ± 0.04 for the first, 3.07 ± 0.03 for the second.

First: COc1cc2ncnc(Nc3cccc(C)c3)c2cc1OC [SM13, Cc1cccc(c1)Nc2c3cc(c(cc3ncn2)OC)OC]
Second: O=C(Nc1ccncc1)c1c(Cl)cccc1Cl [SM16, c1cc(c(c(c1)Cl)C(=O)Nc2ccncc2)Cl]
The logP of the first is higher: 2.92 ± 0.04 for the first, 2.62 ± 0.01 for the second.
